Reference: patent publication US8309552B2, “Immunomodulating heterocyclic compounds” (Medigene AG, priority 2003, dated 2012)

Biological target: T1, CD80-CD28 interaction (Homo sapiens, UniProt P33681)
T1 sequence (P33681 35-242 limits assumed): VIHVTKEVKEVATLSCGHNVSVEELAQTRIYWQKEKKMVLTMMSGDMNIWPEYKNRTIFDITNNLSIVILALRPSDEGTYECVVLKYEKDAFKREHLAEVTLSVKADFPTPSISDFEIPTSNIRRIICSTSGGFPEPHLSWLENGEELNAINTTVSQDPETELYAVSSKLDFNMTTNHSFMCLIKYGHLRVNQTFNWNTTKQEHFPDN
Assay: Homogenous Time Resolved Fluorescence (HTRF) assay, cell free
Type: binding
Conditions: cell free HTRF assay; concentration series 100 μM-1.7 nM; 4 hours at room temperature; read-out: Activity (EC50 in the HTRF assay)
Summary of the method: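 Europium and APC labels were linked through antibodies to CD28 and CD80 fusion proteins. Compounds were tested at 100 μM-1.7 nM for 4 h at room temperature in 50 mM Tris-HCl, 150 mM NaCl pH7.8, 0.1% BSA. Emission read at 665 and 615 nm (excitation 340 nm); non-specific signal measured with C215 Fab in place of CD80; EC50 reported in bands.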

Compound | EC50 [nM]
O=C(NCc1ccc2c(c1)OCO2)Nc1ccc(-n2[nH]c3c(nnc4ccccc43)c2=O)cc1 [Example 286] | > 10000
O=C(NCCc1cccs1)Nc1ccc(-n2[nH]c3c(nnc4ccccc43)c2=O)cc1 [Example 289] | 1000 to 10000
O=C(NCCCc1ccccc1)Nc1ccc(-n2[nH]c3c(nnc4ccccc43)c2=O)cc1 [Example 291] | > 10000
O=C(Nc1ccc(-n2[nH]c3c(nnc4ccccc43)c2=O)cc1)NC1CCCC1OCc1ccccc1 (stereo not shown) [Example 292] | > 10000
O=C(Nc1ccc(-n2[nH]c3c(nnc4ccccc43)c2=O)cc1)Nc1nc2ccccc2s1 [Example 293] | > 10000
CC(C)(C)OC(=O)N1CCN(CCNC(=O)Nc2ccc(-n3[nH]c4c(nnc5ccccc54)c3=O)cc2)CC1 [Example 294] | 1000 to 10000
O=C(NCc1ccc([N+](=O)[O-])cc1)Nc1ccc(-n2[nH]c3c(nnc4ccccc43)c2=O)cc1 [Example 296] | > 10000
O=C(NCCCN1CCCC1=O)Nc1ccc(-n2[nH]c3c(nnc4ccccc43)c2=O)cc1 [Example 297] | 1000 to 10000
O=C(Nc1ccc(-n2[nH]c3c(nnc4ccccc43)c2=O)cc1)NC1CCCCCC1 [Example 299] | > 10000
O=C(NCCNc1ccc([N+](=O)[O-])cn1)Nc1ccc(-n2[nH]c3c(nnc4ccccc43)c2=O)cc1 [Example 302] | > 10000
CCOC(=O)N1CCC(NC(=O)Nc2ccc(-n3[nH]c4c(nnc5ccccc54)c3=O)cc2)CC1 [Example 303] | > 10000
CC(CCc1ccccc1)NC(=O)Nc1ccc(-n2[nH]c3c(nnc4ccccc43)c2=O)cc1 (stereo not shown) [Example 304] | > 10000
CCOC(CNC(=O)Nc1ccc(-n2[nH]c3c(nnc4ccccc43)c2=O)cc1)OCC [Example 307] | 1000 to 10000
CCC(C)CNC(=O)Nc1ccc(-n2[nH]c3c(nnc4ccccc43)c2=O)cc1 (stereo not shown) [Example 308] | 1000 to 10000
CCC(C)NC(=O)Nc1ccc(-n2[nH]c3c(nnc4ccccc43)c2=O)cc1 (stereo not shown) [Example 309] | 1000 to 10000
O=C(NC1C2CC3CC(C2)CC1C3)c1ccc(-n2[nH]c3c(nnc4ccccc43)c2=O)cc1 (stereo not shown) [Example 313] | 1000 to 10000
O=C(NC1CC1c1ccccc1)c1ccc(-n2[nH]c3c(nnc4ccccc43)c2=O)cc1 (stereo not shown) [Example 315] | 1000 to 10000

Compound | EC50 [nM]
CC1CCCCC1NC(=O)c1ccc(-n2[nH]c3c(nnc4ccccc43)c2=O)cc1 (stereo not shown) [Example 316] | 1000 to 10000
CC1CCCC(NC(=O)c2ccc(-n3[nH]c4c(nnc5ccccc54)c3=O)cc2)C1C (stereo not shown) [Example 317] | 1000 to 10000
C[Si](C)(C)CNC(=O)c1ccc(-n2[nH]c3c(nnc4ccccc43)c2=O)cc1 [Example 320] | > 10000
CC(C)NCCCNC(=O)c1ccc(-n2[nH]c3c(nnc4c(F)cccc43)c2=O)cc1 [Example 348] | < 1000
NCCCCNC(=O)c1ccc(-n2[nH]c3c(nnc4c(F)cccc43)c2=O)cc1 [Example 351] | < 1000
O=C(NCCCN1CCCC1)c1ccc(-n2[nH]c3c(nnc4c(F)cccc43)c2=O)cc1 [Example 352] | < 1000
CCCCOCCCNC(=O)c1ccc(-n2[nH]c3c(nnc4c(F)cccc43)c2=O)cc1 [Example 354] | < 1000
CNCCCNC(=O)c1ccc(-n2[nH]c3c(nnc4c(F)cccc43)c2=O)cc1 [Example 355] | < 1000
CNCCNC(=O)c1ccc(-n2[nH]c3c(nnc4c(F)cccc43)c2=O)cc1 [Example 356] | < 1000
CCNCCNC(=O)c1ccc(-n2[nH]c3c(nnc4c(F)cccc43)c2=O)cc1 [Example 357] | < 1000
CC1CCCCN1CCCNC(=O)c1ccc(-n2[nH]c3c(nnc4c(F)cccc43)c2=O)cc1 (stereo not shown) [Example 358] | < 1000
CC(Cc1c[nH]c2ccccc12)NC(=O)c1ccc(-n2[nH]c3c(nnc4c(F)cccc43)c2=O)cc1 (stereo not shown) [Example 359] | < 1000
O=C(NCCc1ccccc1Cl)c1ccc(-n2[nH]c3c(nnc4c(F)cccc43)c2=O)cc1 [Example 360] | 1000 to 10000
Cc1ccc(CCNC(=O)c2ccc(-n3[nH]c4c(nnc5c(F)cccc54)c3=O)cc2)cc1 [Example 362] | 1000 to 10000
O=C(NCCc1ccc(Cl)cc1)c1ccc(-n2[nH]c3c(nnc4c(F)cccc43)c2=O)cc1 [Example 363] | 1000 to 10000
O=C(NCCc1cccc(Cl)c1)c1ccc(-n2[nH]c3c(nnc4c(F)cccc43)c2=O)cc1 [Example 364] | 1000 to 10000
O=C(NCCc1cccc(Br)c1)c1ccc(-n2[nH]c3c(nnc4c(F)cccc43)c2=O)cc1 [Example 365] | > 10000

More lines, now with the values ahead:

EC50 [nM] | Compound
< 1000 | O=C(NCCc1cnc[nH]1)Nc1ccc(-n2[nH]c3c(nnc4ccccc43)c2=O)cc1 [Example 285]
< 1000 | O=C(NCCN1CCNC1=O)Nc1ccc(-n2[nH]c3c(nnc4ccccc43)c2=O)cc1 [Example 287]
< 1000 | O=C(NCC1CCNCC1)Nc1ccc(-n2[nH]c3c(nnc4ccccc43)c2=O)cc1 [Example 290]
< 1000 | O=C(NCCCn1ccnc1)Nc1ccc(-n2[nH]c3c(nnc4ccccc43)c2=O)cc1 [Example 298]
< 1000 | O=C(NCCN1CCNCC1)Nc1ccc(-n2[nH]c3c(nnc4ccccc43)c2=O)cc1 [Example 300]
< 1000 | CC1(C)CC(NC(=O)Nc2ccc(-n3[nH]c4c(nnc5ccccc54)c3=O)cc2)CC(C)(C)N1 [Example 301]
< 1000 | COC(CNC(=O)Nc1ccc(-n2[nH]c3c(nnc4ccccc43)c2=O)cc1)OC [Example 306]
< 1000 | CCN1CCCC1CNC(=O)Nc1ccc(-n2[nH]c3c(nnc4ccccc43)c2=O)cc1 (stereo not shown) [Example 310]
< 1000 | O=C(NCC(F)F)c1ccc(-n2[nH]c3c(nnc4ccccc43)c2=O)cc1 [Example 311]
< 1000 | O=C(NCCC(F)(F)F)c1ccc(-n2[nH]c3c(nnc4ccccc43)c2=O)cc1 [Example 312]
< 1000 | C#CC1(NC(=O)c2ccc(-n3[nH]c4c(nnc5ccccc54)c3=O)cc2)CCCCC1 [Example 314]
< 1000 | CC12CCC(C1)C(C)(C)C2NC(=O)c1ccc(-n2[nH]c3c(nnc4ccccc43)c2=O)cc1 (stereo not shown) [Example 318]
< 1000 | CC(C)(C)NC(=O)c1ccc(-n2[nH]c3c(nnc4ccccc43)c2=O)cc1 [Example 319]
< 1000 | CCCC(C)NC(=O)c1ccc(-n2[nH]c3c(nnc4ccccc43)c2=O)cc1 (stereo not shown) [Example 321]
< 1000 | CCCCC(C)NC(=O)c1ccc(-n2[nH]c3c(nnc4ccccc43)c2=O)cc1 (stereo not shown) [Example 322]
< 1000 | O=C(NC1CCN(Cc2ccccc2)CC1)c1ccc(-n2[nH]c3c(nnc4c(F)cccc43)c2=O)cc1 [Example 323]
< 1000 | CN(C)CCNC(=O)Nc1ccc(-n2[nH]c3c(nnc4c(F)cccc43)c2=O)cc1 [Example 324]
< 1000 | O=C(NCCCCN1CCCC1)c1ccc(-n2[nH]c3c(nnc4ccc(F)cc43)c2=O)cc1 [Example 325]
< 1000 | CCN(CC)CCNC(=O)c1ccc(-n2[nH]c3c(nnc4ccc(F)cc43)c2=O)cc1 [Example 326]
< 1000 | CN1CCCC1CCNC(=O)c1ccc(-n2[nH]c3c(nnc4ccc(F)cc43)c2=O)cc1 (stereo not shown) [Example 327]

EC50 [nM] | Compound
< 1000 | O=C(NC1CCN(Cc2ccccc2)CC1)c1ccc(-n2[nH]c3c(nnc4ccc(F)cc43)c2=O)cc1 [Example 328]
< 1000 | CCCCN(CCCC)CCCNC(=O)c1ccc(-n2[nH]c3c(nnc4ccc(F)cc43)c2=O)cc1 [Example 329]
< 1000 | CCN(CC)CCCNC(=O)c1ccc(-n2[nH]c3c(nnc4ccc(F)cc43)c2=O)cc1 [Example 330]
< 1000 | O=C(NCCCN1CCCC1)c1ccc(-n2[nH]c3c(nnc4ccc(F)cc43)c2=O)cc1 [Example 331]
< 1000 | CC1CCCCN1CCCNC(=O)c1ccc(-n2[nH]c3c(nnc4ccc(F)cc43)c2=O)cc1 (stereo not shown) [Example 332]
< 1000 | CC=CCNC(=O)c1ccc(-n2[nH]c3c(nnc4c(F)cccc43)c2=O)cc1 [Example 333]
< 1000 | O=C(CN1CCC(NC(=O)c2ccc(-n3[nH]c4c(nnc5c(F)cccc54)c3=O)cc2)CC1)c1ccccc1 [Example 334]
< 1000 | CCOCCN1CCC(NC(=O)c2ccc(-n3[nH]c4c(nnc5c(F)cccc54)c3=O)cc2)CC1 [Example 335]
< 1000 | O=C(NC1CCN(CCC2CCCCC2)CC1)c1ccc(-n2[nH]c3c(nnc4c(F)cccc43)c2=O)cc1 [Example 336]
< 1000 | CC(c1ccccc1)N1CCC(NC(=O)c2ccc(-n3[nH]c4c(nnc5c(F)cccc54)c3=O)cc2)CC1 (stereo not shown) [Example 337]
< 1000 | O=C(NCCCCN1CCOCC1)c1ccc(-n2[nH]c3c(nnc4ccccc43)c2=O)cc1 [Example 338]
< 1000 | O=C(NCCCCN1CCCCC1)c1ccc(-n2[nH]c3c(nnc4ccccc43)c2=O)cc1 [Example 339]
< 1000 | C=C(C)CNC(=O)c1ccc(-n2[nH]c3c(nnc4c(F)cccc43)c2=O)cc1 [Example 340]
< 1000 | CCCNCCNC(=O)c1ccc(-n2[nH]c3c(nnc4c(F)cccc43)c2=O)cc1 [Example 341]
< 1000 | CCN(CC)CCNC(=O)c1ccc(-n2[nH]c3c(nnc4c(F)cccc43)c2=O)cc1 [Example 342]
< 1000 | CN1CCCC1CCNC(=O)c1ccc(-n2[nH]c3c(nnc4c(F)cccc43)c2=O)cc1 (stereo not shown) [Example 343]
< 1000 | CCCCNCCNC(=O)c1ccc(-n2[nH]c3c(nnc4c(F)cccc43)c2=O)cc1 [Example 344]
< 1000 | CCN(CC)CCCNC(=O)c1ccc(-n2[nH]c3c(nnc4c(F)cccc43)c2=O)cc1 [Example 346]
< 1000 | O=C(NCCNCc1ccccc1)c1ccc(-n2[nH]c3c(nnc4c(F)cccc43)c2=O)cc1 [Example 347]
